Here are results for 22 molecules from US10196393B2, “JAK inhibitors containing a 4-membered heterocyclic amide” (THERAVANCE BIOPHARMA R&D IP, LLC, priority 2017, dated 2019).

Structures are written as SMILES.

In test [1] the test system is IL-13 induced STAT6 phosphorylation in BEAS-2B human lung epithelial cells. The experiment in a line: Cellular JAKI potency assay (AlphaScreen), BEAS-2B. It is filed as cell-based. The conditions noted are these: BEAS-2B cells. As to the method:
Assay 2: Cellular JAKI Potency Assay
The AlphaScreen JAKI cellular potency assay was carried out by measuring interleukin-13 (IL-13, R&D Systems) induced STAT6 phosphorylation in BEAS-2B human lung epithelial cells (ATCC). The anti-STAT6 antibody (Cell Signaling Technologies) was conjugated to AlphaScreen acceptor beads (Perkin Elmer), while the anti-pSTAT6 (pTyr641) antibody (Cell Signaling Technologies) was biotinylated using EZ-Link Sulfo-NHS-Biotin (Thermo Scientific).
BEAS-2B cells were grown at 37° C. in a 5% CO2 humidified incubator in 50% DMEM/50% F-12 medium (Life Technologies) supplemented with 10% FBS (Hyclone), 100 U/mL penicillin, 100 μg/mL streptomycin (Life Technologies), and 2 mM GlutaMAX (Life Technologies). On day 1 of the assay, cells were seeded at a 7,500 cells/well density in white poly-D-lysine-coated 384-well plates (Corning) with 25 μL medium, and were allowed to adhere overnight in the incubator. On day 2 of the assay, the medium was removed and replaced with 12 μL of assay buffer (Hank's Balanced Salt Solution/HBSS, 25 mM HEPES, and 1 mg/ml bovine serum albumin/BSA) containing dose-responses of test compounds. Compounds were serially diluted in DMSO and then diluted another 1000-fold in media to bring the final DMSO concentration to 0.1%. Cells were incubated with test compounds at 37° C. for 1 h, and followed by the addition of 12 μl of pre-warmed IL-13 (80 ng/mL in assay buffer) for stimulation. After incubating at 37° C. for 30 min, the assay buffer (containing compound and IL-13) was removed, and 10 μL of cell lysis buffer (25 mM HEPES, 0.1% SDS, 1% NP-40, 5 mM MgCl2, 1.3 mM EDTA, 1 mM EGTA, and supplement with Complete Ultra mini protease inhibitors and PhosSTOP from Roche Diagnostics). The plates were shaken at ambient temperature for 30 min before the addition of detection reagents. A mixture of biotin-anti-pSTAT6 and anti-STAT6 conjugated acceptor beads was added first and incubated at ambient temperature for 2 h, followed by the addition of streptavidin conjugated donor beads (Perkin Elmer). After a minimum of 2 h incubation, the assay plates were read on the EnVision plate reader. AlphaScreen luminescence signals were recorded and utilized to calculate the percent inhibition values based on DMSO and background controls.
For dose-response analysis, percent inhibition data were plotted vs. compound concentrations, and IC50 values were determined from a 4-parameter robust fit model with the Prism software. Results may also be expressed as the negative logarithm of the IC50 value, pIC50.
Test compounds having a lower IC50 value or higher pIC50 value in this assay show greater inhibition of IL-13 induced STAT6 phosphorylation.

The subject of test [2] is IL-13 induced pSTAT6 induction in lung tissue. The experiment in a line: Murine model of IL-13 induced pSTAT6 induction in lung tissue. It counts as in vivo. The conditions noted are these: mouse lung, 1 mg/mL 50 μL oral aspiration, IL-13 challenge 4 h after dose, lungs at 5 hours. From the text: Assay 4: Murine (Mouse) Model of IL-13 Induced pSTAT6 Induction in Lung Tissue
Il-13 is an important cytokine underlying the pathophysiology of asthma (Kudlacz et al. Eur. J. Pharmacol, 2008, 582,154-161). IL-13 binds to cell surface receptors activating members of the Janus family of kinases (JAK) which then phosphorylate STAT6 and subsequently activates further transcription pathways. In the described model, a dose of IL-13 was delivered locally into the lungs of mice to induce the phosphorylation of STAT6 (pSTAT6) which is then measured as the endpoint.
Adult balb/c mice from Harlan were used in the assay. On the day of study, animals were lightly anesthetized with isoflurane and administered either vehicle or test compound (1 mg/mL, 50 μL total volume over several breaths) via oral aspiration. Animals were placed in lateral recumbency post dose and monitored for full recovery from anesthesia before being returned to their home cage. Four hours later, animals were once again briefly anesthetized and challenged with either vehicle or IL-13 (0.03 μg total dose delivered, 50 μL total volume) via oral aspiration before being monitored for recovery from anesthesia and returned to their home cage. One hour after vehicle or IL-13 administration, lungs were collected for both pSTAT6 detection using an anti-pSTAT6 ELISA (rabbit mAb capture/coating antibody; mouse mAb detection/report antibody: anti-pSTAT6-pY641; secondary antibody: anti-mouse IgG-HRP) and analyzed for total drug concentration as described above in Assay 3.
Selected compounds of the invention were tested in the assay. Activity in the model is evidenced by a decrease in the level of pSTAT6 present in the lungs of treated animals at 5 hours compared to the vehicle treated, IL-13 challenged control animals. The difference between the control animals which were vehicle-treated, IL-13 challenged and the control animals which were vehicle-treated, vehicle challenged dictated the 0% and 100% inhibitory effect, respectively, in any given experiment.

Another test deals with JAK1 (Homo sapiens (Human), UniProt P23458). The experiment in a line: Biochemical JAK kinase assay (LanthaScreen), JAK1. To be noted: converted from pIC50 with Cheng-Prusoff equation. The procedure: (§1) Assay 1: Biochemical JAK Kinase Assays
Sequence of JAK1 (P23458 whole entry): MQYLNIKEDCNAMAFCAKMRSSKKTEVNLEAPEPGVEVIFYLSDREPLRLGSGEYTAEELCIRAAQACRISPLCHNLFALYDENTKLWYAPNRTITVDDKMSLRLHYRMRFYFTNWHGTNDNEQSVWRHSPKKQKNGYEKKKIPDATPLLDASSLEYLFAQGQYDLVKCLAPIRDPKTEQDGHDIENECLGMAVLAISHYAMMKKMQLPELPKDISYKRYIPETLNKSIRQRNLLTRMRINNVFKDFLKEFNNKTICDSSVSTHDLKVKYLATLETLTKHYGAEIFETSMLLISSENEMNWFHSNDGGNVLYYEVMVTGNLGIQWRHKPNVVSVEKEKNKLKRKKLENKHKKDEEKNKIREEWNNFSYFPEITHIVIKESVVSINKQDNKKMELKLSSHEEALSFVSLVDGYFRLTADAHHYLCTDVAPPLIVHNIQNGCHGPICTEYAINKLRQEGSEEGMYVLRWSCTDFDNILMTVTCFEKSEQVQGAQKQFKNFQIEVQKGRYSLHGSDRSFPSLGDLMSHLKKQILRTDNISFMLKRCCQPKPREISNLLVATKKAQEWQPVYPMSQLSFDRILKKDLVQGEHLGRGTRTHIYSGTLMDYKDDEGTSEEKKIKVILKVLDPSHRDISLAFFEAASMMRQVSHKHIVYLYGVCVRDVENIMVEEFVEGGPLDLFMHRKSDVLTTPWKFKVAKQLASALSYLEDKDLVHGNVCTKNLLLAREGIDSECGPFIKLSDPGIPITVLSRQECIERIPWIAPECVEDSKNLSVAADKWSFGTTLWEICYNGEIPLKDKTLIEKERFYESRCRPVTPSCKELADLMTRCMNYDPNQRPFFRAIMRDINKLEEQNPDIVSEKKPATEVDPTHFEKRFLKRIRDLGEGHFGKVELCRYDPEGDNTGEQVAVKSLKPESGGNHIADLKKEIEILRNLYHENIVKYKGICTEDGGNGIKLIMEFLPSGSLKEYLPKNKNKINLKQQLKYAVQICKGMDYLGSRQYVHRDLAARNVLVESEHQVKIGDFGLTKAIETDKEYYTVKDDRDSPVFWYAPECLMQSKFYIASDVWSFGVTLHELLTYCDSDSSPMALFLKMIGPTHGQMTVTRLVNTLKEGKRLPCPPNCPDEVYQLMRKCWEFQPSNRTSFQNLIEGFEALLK
(§2) A panel of four LanthaScreen JAK biochemical assays (JAK1, 2, 3 and Tyk2) were carried in a common kinase reaction buffer (50 mM HEPES, pH 7.5, 0.01% Brij-35, 10 mM MgCl2, and 1 mM EGTA). Recombinant GST-tagged JAK enzymes and a GFP-tagged STAT1 peptide substrate were obtained from Life Technologies.
(§3) Serially diluted compounds were pre-incubated with each of the four JAK enzymes and the substrate in white 384-well microplates (Corning) at ambient temperature for 1 h. ATP was subsequently added to initiate the kinase reactions in 10 μL total volume, with 1% DMSO. […] The plates were allowed to incubate at ambient temperature for 1 h before being read on the EnVision reader (Perkin Elmer).
(§4) For dose-response analysis, percent inhibition data were plotted vs. compound concentrations, and IC50 values were determined from a 4-parameter robust fit model with the Prism software (GraphPad Software). Results were expressed as pIC50 (negative logarithm of IC50) and subsequently converted to pKi (negative logarithm of dissociation constant, Ki) using the Cheng-Prusoff equation.

The next test concerns the target JAK3 (Homo sapiens (Human), UniProt P52333). The experiment in a line: Biochemical JAK kinase assay (LanthaScreen), JAK3. The conditions noted are these: converted from pIC50 with Cheng-Prusoff equation. The procedure: as §1, §2, §3, §4

Sequence of JAK3 (P52333 whole entry): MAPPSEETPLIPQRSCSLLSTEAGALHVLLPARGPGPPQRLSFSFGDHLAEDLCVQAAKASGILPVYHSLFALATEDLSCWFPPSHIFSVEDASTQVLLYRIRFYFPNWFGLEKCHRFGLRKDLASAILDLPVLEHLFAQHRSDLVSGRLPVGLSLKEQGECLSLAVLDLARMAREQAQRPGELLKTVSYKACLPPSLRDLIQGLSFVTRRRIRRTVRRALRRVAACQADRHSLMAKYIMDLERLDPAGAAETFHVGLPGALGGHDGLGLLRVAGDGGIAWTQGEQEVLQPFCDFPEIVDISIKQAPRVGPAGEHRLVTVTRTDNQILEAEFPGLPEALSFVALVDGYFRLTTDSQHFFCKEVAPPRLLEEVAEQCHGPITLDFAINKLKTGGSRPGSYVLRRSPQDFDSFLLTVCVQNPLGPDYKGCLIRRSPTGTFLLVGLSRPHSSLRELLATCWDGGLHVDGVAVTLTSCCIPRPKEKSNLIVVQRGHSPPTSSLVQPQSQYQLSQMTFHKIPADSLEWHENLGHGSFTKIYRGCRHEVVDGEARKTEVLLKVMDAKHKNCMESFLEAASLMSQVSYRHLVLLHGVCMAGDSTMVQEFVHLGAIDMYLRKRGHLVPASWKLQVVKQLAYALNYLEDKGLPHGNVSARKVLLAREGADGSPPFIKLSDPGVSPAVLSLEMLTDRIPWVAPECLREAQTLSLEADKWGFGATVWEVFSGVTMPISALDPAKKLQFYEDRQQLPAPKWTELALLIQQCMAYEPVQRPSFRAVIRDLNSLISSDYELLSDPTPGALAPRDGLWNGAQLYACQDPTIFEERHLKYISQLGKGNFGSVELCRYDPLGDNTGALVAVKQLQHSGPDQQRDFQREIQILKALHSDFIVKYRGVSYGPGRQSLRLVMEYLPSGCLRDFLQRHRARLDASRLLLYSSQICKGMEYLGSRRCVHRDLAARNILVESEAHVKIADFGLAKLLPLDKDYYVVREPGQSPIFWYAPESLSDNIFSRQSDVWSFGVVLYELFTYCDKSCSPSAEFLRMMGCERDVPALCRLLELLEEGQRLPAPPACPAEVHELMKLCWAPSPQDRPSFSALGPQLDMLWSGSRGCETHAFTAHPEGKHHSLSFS

In test [1], `CCc1cc(O)c(F)cc1-c1ccc2c(-c3nc4c([nH]3)CN(CC)C(C(=O)N3CC(N5CCCCC5)C3)C4)n[nH]c2c1` (racemic) [Example 8-4] showed an IC50 of 10 nM. In test [1] (Homo sapiens), `CCCN1Cc2[nH]c(-c3n[nH]c4cc(-c5cc(F)c(O)cc5CC)ccc34)nc2C[C@H]1C(=O)N1CC(C)(N(C)C)C1` [Example 8, (S)-(3-(dimethylamino)-3-methylazetidin-1-yl)(2-(6-(2-ethyl-5-fluoro-4-hydroxyphenyl)-1H-indazol-3-yl)-5-propyl-4,5,6,7-tetrahydro-3H-imidazo[4,5-c]pyridin-6-yl)methanone] returned an IC50 of 8.5 nM. In addition, the “pSTAT6 inhibition Assay 4” value in test [2] was “B (B represents between 40% and 60% inhibition)”.

`CCc1cc(O)c(F)cc1-c1ccc2c(-c3nc4c([nH]3)CN(C)[C@H](C(=O)N3CC(N5CCCCC5)C3)C4)n[nH]c2c1` [Example 8-1] yielded a Ki on JAK1 of 0.06 nM. Also, the IC50 in test [1] worked out at 6.3 nM. For `CCc1cc(O)c(F)cc1-c1ccc2c(-c3nc4c([nH]3)CN(C)[C@H](C(=O)N3CC(N(C)C)C3)C4)n[nH]c2c1` [Example 8-2] the same measures were 0.06 nM and 12.6 nM. In the case of `CCCN1Cc2[nH]c(-c3n[nH]c4cc(-c5cc(F)c(O)cc5CC)ccc34)nc2C[C@H]1C(=O)N1CC(N2CCCCC2)C1` [Example 8-5], on JAK3, the inhibition constant (Ki) came to 0.2 nM. For the same molecule, the IC50 in test [1] amounted to 25.1 nM. `CCc1cc(O)c(F)cc1-c1ccc2c(-c3nc4c([nH]3)CN(C(C)C)[C@H](C(=O)N3CC(N5CCCCC5)C3)C4)n[nH]c2c1` [Example 8-6] showed a Ki at JAK1 of 0.06 nM. In addition, in test [1], inhibition was half-maximal at 15.8 nM (IC50). On to `CCc1cc(O)c(F)cc1-c1ccc2c(-c3nc4c([nH]3)CN(C(C)C)[C@H](C(=O)N3CC(N(C)C)C3)C4)n[nH]c2c1` [Example 8-7], for which the Ki on JAK1 was 0.06 nM; on JAK3 it was 0.2 nM. The same molecule showed an IC50 in test [1] of 3.1 nM. Further, the “pSTAT6 inhibition Assay 4” value in test [2] is “B (B represents between 40% and 60% inhibition)”. With `CCc1cc(O)c(F)cc1-c1ccc2c(-c3nc4c([nH]3)CN(CC)C(C(=O)N3CC(N(C)C)C3)C4)n[nH]c2c1` (stereo not drawn) [Example 8-8], on JAK3, the Ki is 0.28 nM. This molecule displayed an IC50 in test [1] of 5 nM. For the molecule `CCc1cc(O)c(F)cc1-c1ccc2c(-c3nc4c([nH]3)CN(C)C(C(=O)N3CC(C)(N(C)C)C3)C4)n[nH]c2c1` (stereo not drawn) [Example 8-9], the Ki came to 0.05 nM at JAK1 and 0.16 nM on JAK3. Also, in test [1] (Homo sapiens), the IC50 was found to be 7.1 nM. As to `CCc1cc(O)c(F)cc1-c1ccc2c(-c3nc4c([nH]3)CN(CC)C(C(=O)N3CC(C)(N(C)C)C3)C4)n[nH]c2c1` (stereo not drawn) [Example 8-10], in test [1] (Homo sapiens), the IC50 was determined as 3.2 nM.

As for `CCCN1Cc2[nH]c(-c3n[nH]c4cc(-c5cc(F)c(O)cc5CC)ccc34)nc2CC1C(=O)N1CC(C)(N(C)C)C1` (stereo not drawn) [Example 8-11], in test [1] (Homo sapiens), the IC50 stood at 6.3 nM. With `CCc1cc(O)c(F)cc1-c1ccc2c(-c3nc4c([nH]3)CN(C(C)C)C(C(=O)N3CC(C)(N(C)C)C3)C4)n[nH]c2c1` (stereo not drawn) [Example 8-12], the Ki at JAK1 was determined as 0.06 nM. Besides, the half-inhibitory concentration (IC50) in test [1] (Homo sapiens) came out at 4 nM. `CCc1cc(O)c(F)cc1-c1ccc2c(-c3nc4c([nH]3)CN(CC)[C@H](C(=O)N3CC(N5CCCCC5)C3)C4)n[nH]c2c1` [Example 8-14, (S)-(5-ethyl-2-(6-(2-ethyl-5-fluoro-4-hydroxyphenyl)-1H-indazol-3-yl)-4,5,6,7-tetrahydro-3H-imidazo[4,5-c]pyridin-6-yl)(3-(piperidin-1-yl)azetidin-1-yl)methanone] displayed an IC50 in test [1] (Homo sapiens) of 12.6 nM. Regarding `CCc1cc(O)c(F)cc1-c1ccc2c(-c3nc4c([nH]3)CN(C(C)C)C(C(=O)N3CC(C)(N(C)C)C3)C4)n[nH]c2c1` (stereo not drawn) [Example 8-16], the “pSTAT6 inhibition Assay 4” value in test [2] is “C (C represents between 25% and 40% inhibition)”. Consider `CCc1cc(O)c(F)cc1-c1ccc2c(-c3nc4c([nH]3)CN(C(C)C)[C@H](C(=O)N3CC(C)(N(C)C)C3)C4)n[nH]c2c1` [Example 8-16], for which, in test [1] (Homo sapiens), the IC50 was found to be 5 nM. Molecule `CCc1cc(O)c(F)cc1-c1ccc2c(-c3nc4c([nH]3)CN(C(C)C)[C@@H](C(=O)N3CC(N(C)C)C3)C4)n[nH]c2c1` [Example 8-17] showed a Ki at JAK3 of 0.13 nM. Besides, 8 nM corresponded to half-maximal inhibition in test [1] (IC50). In test [1] (Homo sapiens), `CCc1cc(O)c(F)cc1-c1ccc2c(-c3nc4c([nH]3)CN(C(C)C)[C@@H](C(=O)N3CC(C)(N(C)C)C3)C4)n[nH]c2c1` [Example 8-18] gave a half-maximal inhibitory concentration (IC50) of 4 nM. That is a single-digit nanomolar value.

Molecule `CCCN1Cc2[nH]c(-c3n[nH]c4cc(-c5cc(F)c(O)cc5CC)ccc34)nc2C[C@@H]1C(=O)N1CC(C)(N(C)C)C1` [Example 8-19] had an IC50 in test [1] (Homo sapiens) of 8 nM. `CCc1cc(O)c(F)cc1-c1ccc2c(-c3nc4c([nH]3)CN(CC)[C@@H](C(=O)N3CC(N(C)C)C3)C4)n[nH]c2c1` [Example 8-20] came in with a Ki at JAK3 of 0.2 nM. The IC50 in test [1] was determined as 5 nM. As for `CCc1cc(O)c(F)cc1-c1ccc2c(-c3nc4c([nH]3)CN(CC)[C@@H](C(=O)N3CC(C)(N(C)C)C3)C4)n[nH]c2c1` [Example 8-21], half-maximal inhibition in test [1] (Homo sapiens) (IC50) required 4 nM.

As to `CCc1cc(O)c(F)cc1-c1ccc2c(-c3nc4c([nH]3)CN(CC)[C@H](C(=O)N3CC(N(C)C)C3)C4)n[nH]c2c1` [Example 8-22, (S)-(3-(dimethylamino)azetidin-1-yl)(5-ethyl-2-(6-(2-ethyl-5-fluoro-4-hydroxyphenyl)-1H-indazol-3-yl)-4,5,6,7-tetrahydro-3H-imidazo[4,5-c]pyridin-6-yl)methanone], the affinity on JAK3 corresponds to a Ki of 0.32 nM. In addition, the IC50 in test [1] (Homo sapiens) was found to be 5.25 nM. Also, the “pSTAT6 inhibition Assay 4” value in test [2] is “B (B represents between 40% and 60% inhibition)”. As to `CCc1cc(O)c(F)cc1-c1ccc2c(-c3nc4c([nH]3)CN(CC)[C@H](C(=O)N3CC(C)(N(C)C)C3)C4)n[nH]c2c1` [Example 8-23, (S)-(3-(dimethylamino)-3-methylazetidin-1-yl)(5-ethyl-2-(6-(2-ethyl-5-fluoro-4-hydroxyphenyl)-1H-indazol-3-yl)-4,5,6,7-tetrahydro-3H-imidazo[4,5-c]pyridin-6-yl)methanone], the IC50 in test [1] (Homo sapiens) is 7.7 nM. In addition, the “pSTAT6 inhibition Assay 4” value in test [2] was “B (B represents between 40% and 60% inhibition)”.
